{"source": "patent US20230414778A1", "about": "“COMBINATION OF ANTIBODY-DRUG CONJUGATE WITH ANTI-SIRPalpha ANTIBODY” (DAIICHI SANKYO COMPANY, LIMITED, priority 2020, published 2023)", "key": {"Topoisomerase I": {"molecular_target": "T1, Topoisomerase I (Homo sapiens, UniProt P11387)", "T1 sequence (P11387 1-765)": "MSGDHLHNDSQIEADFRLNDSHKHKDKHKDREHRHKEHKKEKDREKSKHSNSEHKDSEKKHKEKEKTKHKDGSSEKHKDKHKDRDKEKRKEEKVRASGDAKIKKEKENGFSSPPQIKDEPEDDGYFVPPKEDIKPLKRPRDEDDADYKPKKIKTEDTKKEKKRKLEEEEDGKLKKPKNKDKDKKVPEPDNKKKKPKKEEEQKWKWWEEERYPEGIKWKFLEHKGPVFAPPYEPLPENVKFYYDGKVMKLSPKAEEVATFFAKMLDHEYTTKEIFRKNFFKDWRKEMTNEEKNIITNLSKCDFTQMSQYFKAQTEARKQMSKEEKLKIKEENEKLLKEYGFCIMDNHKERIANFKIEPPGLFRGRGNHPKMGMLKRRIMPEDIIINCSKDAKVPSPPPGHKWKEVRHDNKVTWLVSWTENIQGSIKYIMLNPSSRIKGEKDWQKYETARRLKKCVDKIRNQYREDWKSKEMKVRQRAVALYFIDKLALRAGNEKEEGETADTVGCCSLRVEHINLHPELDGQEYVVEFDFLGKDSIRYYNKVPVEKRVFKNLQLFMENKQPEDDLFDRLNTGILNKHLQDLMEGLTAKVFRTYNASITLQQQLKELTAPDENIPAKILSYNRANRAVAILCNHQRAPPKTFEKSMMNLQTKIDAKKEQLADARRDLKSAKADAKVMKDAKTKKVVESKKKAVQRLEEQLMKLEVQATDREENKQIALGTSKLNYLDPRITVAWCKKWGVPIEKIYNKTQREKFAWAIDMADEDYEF", "conditions": "Ogitani Y. et al., Clinical Cancer Research 2016; cited from earlier work"}, "[1]": {"tested_on": "CT26.WT-reactive T cells in mouse spleen cells", "assay": "ELISPOT analysis of IFNγ-producing spleen cells", "assay_type": "in vivo", "description": "The number of CT26.WT-reactive T cells in mouse spleen cells was determined by Murine IFNγ Single-Color Enzymatic ELISPOT Assay (manufactured by […] TECHNOLOGY LIMITED), more specifically, counting of the number of IFNγ spots produced from individual spleen cells. From each of the mice used in Example 3, the spleen was harvested and the number of spleen cells was adjusted to be 1.0×10^6 cells/mL by use of CTL test medium. CT26.WT cells were treated with 10 μg/mL mitomycin C for 2 hours and washed. Thereafter, the cells were collected, adjusted to be 1.0×10^6 cells/mL by CTL test medium, and used as an antigen. The spleen cells and the antigen were added each in an amount of 100 μL/well in a PVDF-membrane plate pre-coated with an anti-IFNγ antibody and co-cultured at 37° C. for 24 hours. Thereafter, the color was developed using the attached antibody and coloring reagent and the number of IFNγ-producing spleen cells was determined. Comparison between the NCD cell inoculation group and compound (A) or MTX treatment group was made in accordance with the Wilcoxon rank sum test. P value was expressed to four decimal places and the results satisfying P<0.05 (two-sided test) were determined as being significant."}, "[2]": {"conditions": "Clin. Invest. 2020: 130(1): 374-388; cited from earlier work"}, "[3]": {"conditions": "drug-treated CT26.WT cells inoculated, anti-SIRPα antibody (5C12) administration"}}}
{"smiles": "CC[C@@]1(O)C(=O)OCc2c1cc1n(c2=O)Cc2c-1nc1cc(F)c(C)c3c1c2[C@@H](NC(=O)CO)CC3", "note": "[compound (A)]", "values": [{"measurement": "topoisomerase I inhibitory effect", "setting": "Topoisomerase I", "value": "TpoI inhibitor"}, {"measurement": "antigen specific T cell induction compared to the MTX treatment group", "setting": "[1]; ELISPOT, spleen cells", "value": "tendency to further enhance"}, {"measurement": "number of IFNγ-producing spleen cells compared to NCD_PBS", "setting": "[1]; drug-treated CT26.WT cells inoculated, PBS administration", "value": "tendency to increase"}, {"measurement": "number of IFNγ-producing spleen cells compared to NCD_PBS", "setting": "[1]; [3]", "value": "significantly increased"}, {"measurement": "number of IFNγ-producing spleen cells compared to compound (A) PBS group", "setting": "[1]; [3]", "value": "significantly increased"}, {"measurement": "antitumor effect by vaccination of the treated cells", "setting": "[2]", "value": "limited antitumor effect"}]}
